Reference: US12624044B2, “SMARCA degraders and uses thereof” (Kymera Therapeutics, Inc., priority 2019, dated 2026)

Tests used:
Format in all cases: cell-based
[1] = target: T1, SMARCA4 (Homo sapiens, UniProt P51532); assay: SMARCA4 Western blot MV4-11 degradation; settings: 24 h; for Dmax: MV4-11, MV4-11 cells, read-out: SMARCA4 WB MV411 degradation 24 h: Average Dmax %; for DC50: MV4-11 cells, read-out: SMARCA4 WB MV411 degradation 24 h: Average external-Abs DC50
T1 construct: SMARCA2 and SMARCA4 protein degradation in MV4-11 cells; endogenous in cells; host or cells: MV4-11
T1 sequence (P51532 whole entry): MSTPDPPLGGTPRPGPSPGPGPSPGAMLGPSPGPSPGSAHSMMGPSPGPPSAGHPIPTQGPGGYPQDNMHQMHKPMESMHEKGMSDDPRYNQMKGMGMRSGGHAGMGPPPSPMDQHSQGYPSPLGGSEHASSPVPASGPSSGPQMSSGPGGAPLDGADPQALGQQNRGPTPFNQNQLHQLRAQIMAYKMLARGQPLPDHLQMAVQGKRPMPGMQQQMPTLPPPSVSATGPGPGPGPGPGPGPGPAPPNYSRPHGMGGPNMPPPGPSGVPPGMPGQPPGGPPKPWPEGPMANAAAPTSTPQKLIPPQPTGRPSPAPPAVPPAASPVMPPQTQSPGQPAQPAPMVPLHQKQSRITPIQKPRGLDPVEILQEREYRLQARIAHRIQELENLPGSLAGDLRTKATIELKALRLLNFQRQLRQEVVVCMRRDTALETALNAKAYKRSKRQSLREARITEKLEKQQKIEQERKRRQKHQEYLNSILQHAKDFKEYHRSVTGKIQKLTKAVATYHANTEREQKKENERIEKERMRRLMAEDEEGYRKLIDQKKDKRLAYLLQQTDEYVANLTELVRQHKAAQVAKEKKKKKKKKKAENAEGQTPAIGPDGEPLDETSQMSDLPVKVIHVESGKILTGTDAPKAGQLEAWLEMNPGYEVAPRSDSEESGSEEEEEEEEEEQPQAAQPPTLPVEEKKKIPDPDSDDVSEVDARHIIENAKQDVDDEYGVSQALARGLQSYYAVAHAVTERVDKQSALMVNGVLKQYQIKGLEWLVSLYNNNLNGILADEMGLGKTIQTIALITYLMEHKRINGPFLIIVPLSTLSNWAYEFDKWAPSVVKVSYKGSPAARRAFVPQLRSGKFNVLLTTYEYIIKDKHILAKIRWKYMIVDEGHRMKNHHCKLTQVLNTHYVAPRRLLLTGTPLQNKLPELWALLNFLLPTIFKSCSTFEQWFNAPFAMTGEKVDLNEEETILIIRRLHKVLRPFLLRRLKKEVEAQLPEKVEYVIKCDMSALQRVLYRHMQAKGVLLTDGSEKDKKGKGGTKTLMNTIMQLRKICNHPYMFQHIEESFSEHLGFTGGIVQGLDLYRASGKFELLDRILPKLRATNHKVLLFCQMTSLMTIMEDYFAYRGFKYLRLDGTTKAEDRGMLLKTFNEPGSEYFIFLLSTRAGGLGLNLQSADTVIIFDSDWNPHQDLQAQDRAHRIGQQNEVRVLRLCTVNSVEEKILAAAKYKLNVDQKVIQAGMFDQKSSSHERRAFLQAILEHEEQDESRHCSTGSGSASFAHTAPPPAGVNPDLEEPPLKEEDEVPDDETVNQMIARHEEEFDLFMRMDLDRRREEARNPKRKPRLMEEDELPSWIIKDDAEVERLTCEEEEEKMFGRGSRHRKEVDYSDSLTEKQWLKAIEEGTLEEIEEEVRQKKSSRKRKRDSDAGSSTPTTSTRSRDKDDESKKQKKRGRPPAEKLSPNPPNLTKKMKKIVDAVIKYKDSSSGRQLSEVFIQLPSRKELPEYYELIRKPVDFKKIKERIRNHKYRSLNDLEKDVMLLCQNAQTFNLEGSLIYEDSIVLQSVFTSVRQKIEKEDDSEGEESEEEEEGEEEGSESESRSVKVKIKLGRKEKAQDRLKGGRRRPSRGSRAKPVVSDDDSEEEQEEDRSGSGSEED
Method: Cells were seeded into 6-well plates (MV4-11: 4×10^6 cells/well/1 ml) and 1 ml of 2× compound solution was added into the well to make the final concentration and the plates were mixed well and incubated for 24 hours (No cytotoxicity was observed). The cell were collected with media and spun at 3000 rpm for 5 minutes. The supernatant was aspirated and the well and the cells were washed with cold PBS once and combined for centrifugation again; the supernatant aspirated again. 200 ul pre-chilled RIPAlysis buffer (Boston BioProducts BP-115D) with protease/phosphatase inhibitor (Roche 05892791001/Roche 04906837001) was directly added into the tube to lyze the cells for 20 minutes on ice. The cell lysate were collected into EP tubes and spun at 13000 rpm for 20 minutes and 72 ul supernatant was transferred to a fresh EP tube containing 18 ul of 5× loading buffer (Beyotime Bio P0015) to make the loading samples. The samples were heated to 100° C. for 10 minutes and cooled to RT and microcentrifuged. 20 ul of samples were loaded onto SDS-PAGE gel (Novex, WG1402BOX) and the gel was run at 80 V for 20 minutes and 120 V for 1.5 hours. The samples were electrotransfer to a NC membrane using wet-transfer method with 250 mA for 2.5 hours. The membrane was blocked with LICOR blocking buffer (LI-COR, 927-50000) for 1 hour. The membrane was washed three times with TBST (CST #9997S), 5 minutes each. Incubation was performed with primary antibody prepared in blocking buffer with 0.1% Tween-20 (Solarbio, P8220) at 4° C. overnight (Anti-SMARCA2/BRM antibody (ab15597) 1:500; Anti-BRG1 antibody [EPR3912] (ab108318) 1:1000; Rabbit anti-Baf180 antibody [EPR15860] (Abcam, ab196022) 1:1000; mouse anti-beta-Actin (8H10D10) (CST #3700) 1:10000). The membrane was washed three times with TBST, 5 minutes each. Incubation with secondary antibody was performed for 1 hour at RT (anti-rabbit IgG (Licor, 926-32211) 1:5000; anti-mouse IgG (LI-COR, 926-68070) 1:5000). The membrane was washed three times with TBST, 5 minutes each and lastly the LiCOR was read.
The letter codes for the percentage of SMARCA degradation after 24 hours (Dmax %) include: A (>90% degradation), B (>70-90% degradation), C (50-70% degradation), and D (<50% degradation).

[2] = target: T2, SMARCA2 (Homo sapiens, UniProt P51531); assay: MSD SMARCA2 degradation in NCI-H1299 cell line (24 h); set-up: HC: NCI-H1299 cells treated with DMSO; host or cells: NCI-H1299; settings: for Dmax: NCI-H1299, NCI-H1299 cells; for DC50: NCI-H1299 cells, read-out: SMARCA2 MSD H1299 degradation 24 h: External Abs-DC50
T2 sequence (P51531 whole entry): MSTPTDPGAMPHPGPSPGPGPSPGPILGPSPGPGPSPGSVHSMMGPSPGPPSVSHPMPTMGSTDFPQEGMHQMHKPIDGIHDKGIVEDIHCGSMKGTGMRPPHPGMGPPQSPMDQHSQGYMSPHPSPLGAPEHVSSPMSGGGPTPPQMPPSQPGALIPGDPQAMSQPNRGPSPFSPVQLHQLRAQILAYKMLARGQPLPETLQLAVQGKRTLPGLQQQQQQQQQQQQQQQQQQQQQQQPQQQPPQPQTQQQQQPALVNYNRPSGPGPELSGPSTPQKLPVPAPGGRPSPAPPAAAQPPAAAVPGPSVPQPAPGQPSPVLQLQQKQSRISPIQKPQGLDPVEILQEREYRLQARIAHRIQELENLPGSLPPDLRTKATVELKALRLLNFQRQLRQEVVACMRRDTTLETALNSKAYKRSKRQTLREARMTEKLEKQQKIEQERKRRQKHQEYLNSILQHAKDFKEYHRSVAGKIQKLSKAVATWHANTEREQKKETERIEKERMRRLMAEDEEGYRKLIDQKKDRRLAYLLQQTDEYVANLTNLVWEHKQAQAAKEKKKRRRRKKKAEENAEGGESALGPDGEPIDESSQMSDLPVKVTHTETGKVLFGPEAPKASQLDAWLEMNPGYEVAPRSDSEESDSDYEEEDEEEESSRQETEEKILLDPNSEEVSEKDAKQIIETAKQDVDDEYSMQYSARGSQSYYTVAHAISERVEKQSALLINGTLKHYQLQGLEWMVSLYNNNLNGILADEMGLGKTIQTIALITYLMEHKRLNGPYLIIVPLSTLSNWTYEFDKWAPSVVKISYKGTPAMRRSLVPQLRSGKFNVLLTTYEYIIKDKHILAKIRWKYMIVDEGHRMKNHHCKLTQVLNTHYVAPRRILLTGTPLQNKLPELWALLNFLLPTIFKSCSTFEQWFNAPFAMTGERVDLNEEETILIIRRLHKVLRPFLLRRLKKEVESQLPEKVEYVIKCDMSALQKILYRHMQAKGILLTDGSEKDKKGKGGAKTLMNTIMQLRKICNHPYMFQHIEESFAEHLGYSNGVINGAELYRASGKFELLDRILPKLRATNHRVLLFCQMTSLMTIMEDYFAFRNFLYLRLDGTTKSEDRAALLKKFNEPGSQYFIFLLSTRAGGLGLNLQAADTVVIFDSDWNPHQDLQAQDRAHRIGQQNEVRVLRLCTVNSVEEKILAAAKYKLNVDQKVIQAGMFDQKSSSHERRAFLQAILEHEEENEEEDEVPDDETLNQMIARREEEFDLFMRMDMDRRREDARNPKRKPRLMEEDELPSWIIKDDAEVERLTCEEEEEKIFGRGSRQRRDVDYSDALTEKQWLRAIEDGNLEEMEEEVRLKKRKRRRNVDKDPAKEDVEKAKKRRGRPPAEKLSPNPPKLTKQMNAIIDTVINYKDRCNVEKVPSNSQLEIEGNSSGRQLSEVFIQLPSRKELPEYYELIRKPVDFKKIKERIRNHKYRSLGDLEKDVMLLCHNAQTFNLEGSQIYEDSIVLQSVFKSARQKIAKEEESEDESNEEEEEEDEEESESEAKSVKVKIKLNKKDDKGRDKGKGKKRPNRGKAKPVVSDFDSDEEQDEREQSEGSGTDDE
Procedure, shortened: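 NCI-H1299 cells treated 24 h with a 3-fold, 9-point compound dilution series, then lysed in RIPA with protease inhibitor. SMARCA2 in lysate-coated MSD plates detected with rabbit anti-SMARCA2 (0.3 ug/ml) and SULFO-TAG secondary. Relative SMARCA2 level normalized between DMSO-treated H1299 cells and SMARCA2-negative A2780 cells; Dmax % binned A–D.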

[3] = target: T2, SMARCA2; assay: MSD SMARCA2 degradation in A549 cell line; settings: 24 h; for Dmax: A549, A549 cells; for DC50: A549 cells, read-out: SMARCA2 MSD A549 degradation 24 h: Average external-Abs DC50
Procedure, shortened: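 A549 cells treated 24 h with compound at final 0.152-1000 nM (3-fold series, DMSO control). Lysates analyzed by MSD immunoassay using anti-SMARCA2/BRM detection and SULFO-TAG secondary antibodies; maximal degradation (Dmax %) reported as letter bins.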

| Dmax [3] [%] | DC50 [3] [nM] | Structure (SMILES) | Dmax [1] [%] | DC50 [1] [nM] | Dmax [2] [%] | DC50 [2] [nM] |
| --- | --- | --- | --- | --- | --- | --- |
|  |  | Cc1ncsc1-c1ccc(CNC(=O)[C@@H]2C[C@@H](O)CN2C(=O)[C@@H](NC(=O)CCCCN2CCN(Cc3ccc(-c4cc(-c5ccccc5O)nnc4N)cc3)CC2)C(C)(C)C)cc1 [I-476] | 50 to 70 | 100 to 500 | < 50 | 100 to 500 |
|  |  | CN1C(=O)CCC(n2c(=O)n(C)c3cc(CCCN4CCC(c5cnc(N6C7CCC6CN(c6cc(-c8ccccc8O)nnc6N)C7)nc5)CC4)ccc32)C1=O (centres unmarked) [I-297] | < 50 |  | < 50 | > 1000 |
|  |  | CN(CCCCCc1cnc(N2C3CCC2CN(c2cc(-c4ccccc4O)nnc2N)C3)nc1)Cc1ccc2c(c1)n(C)c(=O)n2C1CCC(=O)NC1=O (centres unmarked) [I-283] | > 90 | < 100 | > 90 | < 100 |
|  |  | Cn1c(=O)n(C2CCC(=O)NC2=O)c2ccc(CCCN3CCCC(c4cnc(N5C6CCC5CN(c5cc(-c7ccccc7O)nnc5N)C6)nc4)C3)cc21 (centres unmarked) [I-289] | 50 to 70 | < 100 | 70 to 90 | < 100 |
|  |  | Cn1c(=O)n(C2CCC(=O)NC2=O)c2cccc(CCCN3CCCC(c4cnc(N5C6CCC5CN(c5cc(-c7ccccc7O)nnc5N)C6)nc4)C3)c21 (centres unmarked) [I-292] | > 90 | < 100 | > 90 | < 100 |
|  |  | Cc1ncsc1-c1ccc(CNC(=O)[C@@H]2C[C@@H](O)CN2C(=O)[C@@H](NC(=O)CN2CCC(c3nccc(N4C5CCC4CN(c4cc(-c6ccccc6O)nnc4N)C5)n3)CC2)C(C)(C)C)cc1 [I-450] | 50 to 70 | 100 to 500 | < 50 | 100 to 500 |
|  |  | Cc1ncsc1-c1ccc(CNC(=O)[C@@H]2C[C@@H](O)CN2C(=O)[C@@H](NC(=O)CCCCN2CCC(n3cc(-c4cc(-c5ccccc5O)nnc4N)cn3)CC2)C(C)(C)C)cc1 [I-460] | < 50 | 100 to 500 | < 50 | 100 to 500 |
|  |  | Cc1ncsc1-c1ccc(CNC(=O)[C@@H]2C[C@@H](O)CN2C(=O)[C@@H](NC(=O)CCCN2CCC(Cn3cc(-c4cc(-c5ccccc5O)nnc4N)cn3)CC2)C(C)(C)C)cc1 [I-467] | < 50 | 100 to 500 | < 50 | 100 to 500 |
|  |  | Cc1ncsc1-c1ccc(CNC(=O)[C@@H]2C[C@@H](O)CN2C(=O)[C@@H](NC(=O)CN2CCC(Cn3cc(-c4cc(-c5ccccc5O)nnc4N)cn3)CC2)C(C)(C)C)cc1 [I-465] | < 50 | 100 to 500 | < 50 | > 1000 |
|  |  | Cc1ncsc1-c1ccc(CNC(=O)[C@@H]2C[C@@H](O)CN2C(=O)[C@@H](NC(=O)CN2CCC[C@@H](Cn3cc(-c4cc(-c5ccccc5O)nnc4N)cn3)C2)C(C)(C)C)cc1 [I-469] | 50 to 70 | 100 to 500 | < 50 | 100 to 500 |
|  |  | CN(Cc1cnc(N2C3CCC2CN(c2cc(-c4ccccc4O)nnc2N)C3)nc1)CC1CCN(c2ccc3c(c2)n(C)c(=O)n3C2CCC(=O)NC2=O)CC1 (centres unmarked) [I-282, 3-(5-(4-((((2-(3-(3-amino-6-(2-hydroxyphenyl)pyridazin-4-yl)-3,8-diazabicyclo[3.2.1]octan-8-yl)pyrimidin-5-yl)methyl)(methyl)amino)methyl)piperidin-1-yl)-3-methyl-2-oxo-2,3-dihydro-1H-benzo[d]imidazol-1-yl)piperidine-2,6-dione] | > 90 | < 100 | > 90 | < 100 |
|  |  | Cn1c(=O)n(C2CCC(=O)NC2=O)c2ccc(CCN3CCN(C(=O)c4cnc(N5C6CCC5CN(c5cc(-c7ccccc7O)nnc5N)C6)nc4)CC3)cc21 (centres unmarked) [I-293, 3-(5-(2-(4-(2-(3-(3-amino-6-(2-hydroxyphenyl)pyridazin-4-yl)-3,8-diazabicyclo[3.2.1]octan-8-yl)pyrimidine-5-carbonyl)piperazin-1-yl)ethyl)-3-methyl-2-oxo-2,3-dihydro-1H-benzo[d]imidazol-1-yl)piperidine-2,6-dione] | > 90 | < 100 | > 90 | < 100 |
|  |  | Cc1ncsc1-c1ccc(CNC(=O)[C@@H]2C[C@@H](O)CN2C(=O)[C@@H](NC(=O)CCCCCN2CCC(n3cc(-c4cc(-c5ccccc5O)nnc4N)cn3)CC2)C(C)(C)C)cc1 [I-461] | 50 to 70 | 100 to 500 | 50 to 70 | 501 to 1000 |
|  |  | Cc1ncsc1-c1ccc(CNC(=O)[C@@H]2C[C@@H](O)CN2C(=O)[C@@H](NC(=O)CN2CCC(n3cc(-c4cc(-c5ccccc5O)nnc4N)cn3)CC2)C(C)(C)C)cc1 [I-457] | 70 to 90 | 100 to 500 | 70 to 90 | 501 to 1000 |
|  |  | Cc1ncsc1-c1ccc(CNC(=O)[C@@H]2C[C@@H](O)CN2C(=O)[C@@H](NC(=O)CCCCN2CCC[C@@H](Cn3cc(-c4cc(-c5ccccc5O)nnc4N)cn3)C2)C(C)(C)C)cc1 [I-472] | 50 to 70 | 100 to 500 | < 50 | 100 to 500 |
|  |  | Cn1c(=O)n(C2CCC(=O)NC2=O)c2ccc(CCCCNC(=O)Cc3cnc(N4C5CCC4CN(c4cc(-c6ccccc6O)nnc4N)C5)nc3)cc21 (centres unmarked) [I-296] | 70 to 90 | < 100 | > 90 | < 100 |
|  |  | Cn1c(=O)n(C2CCC(=O)NC2=O)c2ccc(C#CCCNC(=O)Cc3cnc(N4C5CCC4CN(c4cc(-c6ccccc6O)nnc4N)C5)nc3)cc21 (centres unmarked) [I-295] | < 50 | < 100 | < 50 | > 1000 |
|  |  | Cc1ncsc1-c1ccc(CNC(=O)[C@@H]2C[C@@H](O)CN2C(=O)[C@@H](NC(=O)CCCN2CCC(n3cc(-c4cc(-c5ccccc5O)nnc4N)cn3)CC2)C(C)(C)C)cc1 [I-459] | < 50 | 100 to 500 | < 50 | 100 to 500 |
|  |  | NCC#Cc1cnc(N2C3CCC2CN(c2cc(-c4ccccc4O)nnc2N)C3)nc1 [I-535, 2-[6-amino-5-[8-[5-(3-aminoprop-1-ynyl)pyrimidin-2-yl]-3,8-diazabicyclo[3.2.1]octan-3-yl]pyridazin-3-yl]phenol] | < 50 | < 100 | < 50 | > 1000 |
|  |  | CN(CCCC#Cc1cnc(N2C3CCC2CN(c2cc(-c4ccccc4O)nnc2N)C3)nc1)Cc1ccc2c(c1)n(C)c(=O)n2C1CCC(=O)NC1=O (centres unmarked) [I-298] | > 90 | < 100 | > 90 | < 100 |
| < 50 | > 1000 | Cc1ncsc1-c1ccc(CNC(=O)[C@@H]2C[C@@H](O)CN2C(=O)[C@@H](NC(=O)CCCN(C)Cc2ccc(N3CCN(c4cc(-c5ccccc5O)nnc4N)CC3)cc2)C(C)(C)C)cc1 [I-464] |  |  |  |  |
| < 50 | > 1000 | CN(CCCOCCCc1cccc2c1n(C)c(=O)n2C1CCC(=O)NC1=O)Cc1ccc(C#Cc2cc(NC(=O)Nc3cc(F)ncc3CO)ccn2)cc1 (centres unmarked) [I-304] |  |  |  |  |
| < 50 | > 1000 | Cn1c(=O)n(C2CCC(=O)NC2=O)c2ccc(CCCOCCCCN3CCN(Cc4cccc(C#Cc5cc(NC(=O)Nc6cc(F)ncc6CO)ccn5)c4)CC3)cc21 (centres unmarked) [I-314] |  |  |  |  |

| Structure (SMILES) | Dmax [3] [%] | DC50 [3] [nM] | Dmax [1] [%] | DC50 [1] [nM] | Dmax [2] [%] | DC50 [2] [nM] |
| --- | --- | --- | --- | --- | --- | --- |
| Cc1ncsc1-c1ccc(CNC(=O)[C@@H]2C[C@@H](O)CN2C(=O)[C@@H](NC(=O)[C@H]2C[C@H](CN3CCC(c4cnc(N5C6CCC5CN(c5cc(-c7ccccc7O)nnc5N)C6)nc4)CC3)C2)C(C)(C)C)cc1 [I-376] | 50 to 70 | 501 to 1000 |  |  |  |  |
| Cc1ncsc1-c1ccc(CNC(=O)[C@@H]2C[C@@H](O)CN2C(=O)[C@@H](NC(=O)C2CC3CCC2C[C@H]3c2cnc(N3C4CCC3CN(c3cc(-c5ccccc5O)nnc3N)C4)nc2)C(C)(C)C)c(C(F)(F)F)c1 (some centres unmarked) [I-442] | 50 to 70 | 501 to 1000 |  |  |  |  |
